Active and inactive are the calls of the source. The calls are words filed in the database; no cut-off is given here.
Key:
Plasmodium falciparum [1] = assay: Antimalarial activity against asynchronous chloroquine-sensitive Plasmodium falciparum 3D7 assessed as parasite growth inhibition infected in erythrocytes incubated for 72 hrs by SYBR green dye based assay; assay type: functional, organism-based; details: 3D7, 72 h
THP-1 [2] = assay: Cytotoxicity against LPS-stimulated human THP-1 cells assessed as cell viability at 10 uM incubated for 12 hrs followed by LPS treatment measured after 4 hrs by PI staining based flow cytometry; assay type: functional; details: time 16.0 hrs
HEK-293T = assay: Antiinflammatory activity against HEK293T cells assessed as fold increase in TNFalpha-induced NF-kappaB activity at 10 uM incubated for 1 hr followed by TNFalpha treatment for 5 hrs by luciferase based assay (reference value: 17.1); assay type: functional, Homo sapiens
THP-1 [3] = assay: Antiinflammatory activity against human THP-1 cells assessed as inhibition of LPS-induced TNFalpha level at 10 uM incubated for 12 to 14 hrs followed by compound replenishment for 1 hr and subsequent LPS treatment for 4 hrs by ELISA assay (reference value: 93.43 %); assay type: functional; design: scale not given: the % may be the effect or the level left; details: time 17-19 hrs
Mus musculus [4] = assay: Antiinflammatory activity in Swiss albino mouse assessed as inhibition of carrageenan-induced paw edema at 200 mg/kg,po pretreated for 1 hr followed by carrageenan administration measured after 6 hrs relative to control; assay type: functional; details: time 7 hrs
Mus musculus [5] = assay: Antiinflammatory activity in Swiss albino mouse assessed as inhibition of carrageenan-induced paw edema at 200 mg/kg,po pretreated for 1 hr followed by carrageenan administration measured after 4 hrs relative to control; assay type: functional; details: time 5 hrs
Plasmodium falciparum [6] = assay: Antimalarial activity against asynchronous chloroquine-resistant Plasmodium falciparum K1 assessed as parasite growth inhibition infected in erythrocytes incubated for 72 hrs by SYBR green dye based assay; assay type: functional, organism-based; details: K1, 72 h
[7] = Cytotoxicity against African green monkey Vero cells incubated for 3 days by fluorescence based assay; assay type: toxicity, cell-based; details: chlorocebus sabaeus, time 3 day
Plasmodium yoelii [8] = assay: Antimalarial activity against chloroquine-resistant Plasmodium yoelii N67 infected in Swiss mouse assessed as parasite growth suppression at 100 mg/kg/day, po for 4 days measured on day 7 relative to control; assay type: functional; details: time 7 day
[9] = Toxicity in Swiss mouse infected with chloroquine-resistant Plasmodium yoelii N67 assessed as mean survival time at 100 mg/kg/day, po for 4 days (reference value: 7.2 +/- 1.3 day); assay type: organism-based; details: in vivo, 96 h, time 4 day
Plasmodium yoelii [10] = assay: Antimalarial activity against chloroquine-resistant Plasmodium yoelii N67 infected in Swiss mouse assessed as parasite growth suppression at 100 mg/kg/day, po for 4 days measured on day 4 relative to control; assay type: functional; details: time 4 day
[11] = MRT in fasted Swiss mouse at 50 mg/kg, po measured upto 48 hrs by LC-MS/MS analysis; assay type: ADME, organism-based; details: in vivo
Mus musculus [12] = assay: Antiinflammatory activity in Swiss albino mouse assessed as inhibition of carrageenan-induced paw edema at 100 mg/kg,po pretreated for 1 hr followed by carrageenan administration measured after 4 hrs relative to control; assay type: functional; details: time 5 hrs
[13] = Tmax in fasted Swiss mouse at 50 mg/kg, po measured upto 48 hrs by LC-MS/MS analysis; assay type: ADME, organism-based; details: in vivo
[14] = Clearance in fasted Swiss mouse at 50 mg/kg, po measured upto 48 hrs by LC-MS/MS analysis; assay type: ADME, organism-based; details: in vivo
[15] = Stability in simulated gastric fluid assessed as compound remaining at pH 1.2 measured upto 120 mins by LC-MS analysis; assay type: ADME; details: read-out: Stability
[16] = Stability in mouse plasma assessed as compound remaining at 10 uM measured upto 120 mins by LC-MS analysis; assay type: ADME, cell-free; details: read-out: Stability
Mus musculus [17] = assay: Antiinflammatory activity in Swiss albino mouse assessed as inhibition of carrageenan-induced paw edema at 50 mg/kg,po pretreated for 1 hr followed by carrageenan administration measured after 6 hrs relative to control; assay type: functional; details: time 7 hrs
Mus musculus [18] = assay: Antiinflammatory activity in Swiss albino mouse assessed as inhibition of carrageenan-induced paw edema at 25 mg/kg,po pretreated for 1 hr followed by carrageenan administration measured after 4 hrs relative to control; assay type: functional; details: time 5 hrs
[19] = Volume of distribution in fasted Swiss mouse at 50 mg/kg, po measured upto 48 hrs by LC-MS/MS analysis; assay type: ADME, organism-based; details: in vivo
[20] = Cmax in fasted Swiss mouse at 50 mg/kg, po measured upto 48 hrs by LC-MS/MS analysis; assay type: ADME, organism-based; design: time < 48 hrs, dose 50 mg/kg, route po; details: in vivo
[21] = Half life in fasted Swiss mouse at 50 mg/kg, po measured upto 48 hrs by LC-MS/MS analysis; assay type: ADME, organism-based; details: in vivo
THP-1 [22] = assay: Downregulation of LPS-induced ERK1/2 phosphorylation in human THP-1 cells at 10 uM incubated for 60 mins followed by LPS treatment 90 mins by […]; assay type: functional, cell-based; details: time 150.0 min
Mus musculus [23] = assay: Antiinflammatory activity in Swiss albino mouse assessed as inhibition of carrageenan-induced paw edema at 25 mg/kg,po pretreated for 1 hr followed by carrageenan administration measured after 6 hrs relative to control; assay type: functional; details: time 7 hrs
Mus musculus [24] = assay: Antiinflammatory activity in Swiss albino mouse assessed as inhibition of carrageenan-induced paw edema at 100 mg/kg,po pretreated for 1 hr followed by carrageenan administration measured after 6 hrs relative to control; assay type: functional; details: time 7 hrs
Mus musculus [25] = assay: Antiinflammatory activity in Swiss albino mouse assessed as inhibition of carrageenan-induced paw edema at 50 mg/kg,po pretreated for 1 hr followed by carrageenan administration measured after 4 hrs relative to control; assay type: functional; details: time 5 hrs
[26] = AUC in fasted Swiss mouse at 50 mg/kg, po measured upto 48 hrs by LC-MS/MS analysis; assay type: ADME, organism-based; design: time < 48 hrs, dose 50 mg/kg, route po; details: in vivo
THP-1 [27] = assay: Downregulation of LPS-induced JNK1/2 phosphorylation in human THP-1 cells at 10 uM incubated for 60 mins followed by LPS treatment 90 mins by […]; assay type: functional, cell-based; details: time 150.0 min
[28] = Stability in simulated intestinal fluid assessed as compound remaining at pH 6.8 measured upto 120 mins by LC-MS analysis; assay type: ADME; details: read-out: Stability
[29] = Stability in simulated physiological fluid assessed as compound remaining at pH 7.4 measured upto 120 mins by LC-MS analysis; assay type: physicochemical; details: read-out: Stability

## Cc1c(C(=O)Nc2ccccc2)c(-c2ccc(Cl)cc2)c(-c2ccc(Cl)cc2)n1CC1=CC(=O)OC1O (centres undefined)
Plasmodium falciparum [1]
  IC50: 1.87 µM
THP-1 [2]
  Activity: Active
HEK-293T
  fold change (FC): 8.5
THP-1 [3]
  Activity: 91.04%

## CC(C)Cc1ccc(C(C)C(=O)O)cc1 (centres undefined) [IBUPROFEN]
Mus musculus [4]
  inhibition in vivo at 200 mg/kg: 72%
Mus musculus [5]
  inhibition in vivo at 200 mg/kg: 78%

## COc1ccc(-c2c(C(=O)Nc3ccccc3)c(C)n(CCC3=CC(=O)OC3O)c2-c2ccc(OC)cc2)cc1 (centres undefined)
Plasmodium falciparum [1]
  IC50: 1.49 µM
THP-1 [2]
  Activity: Active
HEK-293T
  fold change (FC): 8.6
THP-1 [3]
  Activity: 85.2%

## Cc1c(C(=O)Nc2ccccc2)c(-c2ccccc2)c(-c2ccccc2)n1CCC1=CC(=O)OC1O (centres undefined)
Plasmodium falciparum [1]
  IC50: 2.83 µM
THP-1 [2]
  Activity: Active
HEK-293T
  fold change (FC): 10.3
THP-1 [3]
  Activity: 13.5%

## COc1ccc(-c2c(-c3ccccc3)c(C(=O)Nc3ccccc3)c(C)n2CC2=CC(=O)OC2O)cc1 (centres undefined)
Plasmodium falciparum [1]
  IC50: 3.39 µM
THP-1 [2]
  Activity: Active
HEK-293T
  fold change (FC): 10.4
THP-1 [3]
  Activity: 79.88%

## CC(C)c1c(C(=O)Nc2ccccc2)c(-c2ccccc2)c(-c2ccc(F)cc2)n1CC[C@@H](O)C[C@@H](O)CC(=O)O [ATORVASTATIN]
Plasmodium falciparum [1]
  IC50: 4.6 µM
Plasmodium falciparum [6]
  IC50: > 5 µM

## Cc1c(C(=O)Nc2ccccc2)c(-c2ccccc2)c(-c2ccc(F)cc2)n1CCC1=CC(=O)OC1O (centres undefined)
Plasmodium falciparum [1]
  IC50: 0.88 µM
[7]
  CC50 at 72 h: > 200 µM
Plasmodium yoelii [8]
  Activity: 46.6%
Plasmodium falciparum [6]
  IC50: 4.31 µM
THP-1 [2]
  Activity: Active
HEK-293T
  fold change (FC): 11.4
[9]
  MST: 8 days
Plasmodium yoelii [10]
  Activity: 56.4%
THP-1 [3]
  Activity: 89.15%

## COc1ccc(-c2c(C(=O)Nc3ccccc3)c(C)n(CC3=CC(=O)OC3O)c2-c2ccc(OC)cc2)cc1 (centres undefined)
Plasmodium falciparum [1]
  IC50: 1.8 µM
THP-1 [2]
  Activity: Active
HEK-293T
  fold change (FC): 9.8
THP-1 [3]
  Activity: 19.82%

## Cc1ccc(-c2c(-c3ccccc3)c(C(=O)Nc3ccccc3)c(C)n2CCC2=CC(=O)OC2O)cc1 (centres undefined)
Plasmodium falciparum [1]
  IC50: 0.6 µM
[7]
  CC50 at 72 h: > 200 µM
Plasmodium yoelii [8]
  Activity: 80.68%
Plasmodium falciparum [6]
  IC50: 3.92 µM
THP-1 [2]
  Activity: Active
HEK-293T
  fold change (FC): 13.1
[9]
  MST: 14.6 days
Plasmodium yoelii [10]
  Activity: 34.6%
THP-1 [3]
  Activity: 46.46%

## CC1=CCC[C@@H]2[C@@](C)(CCC3=CC(=O)O[C@@H]3O)[C@H](C)CC[C@@]12C
Plasmodium falciparum [1]
  IC50: 1.27 µM
Plasmodium falciparum [6]
  IC50: 2.88 µM

## Cc1c(C(=O)Nc2ccccc2)c(-c2ccccc2)c(-c2ccc(C(C)C)cc2)n1CCC1=CC(=O)OC1O (centres undefined)
[11]
  MRT: 58.8 min
Mus musculus [12]
  inhibition in vivo at 100 mg/kg: 67%
Plasmodium falciparum [1]
  IC50: 0.97 µM
[13]
  Tmax: 15 min
[14]
  CL/F: 292 L/h/kg
[7]
  CC50 at 72 h: 138 µM
Plasmodium yoelii [8]
  Activity: 46.4%
[15]
  remaining at 2 h: 89.7%
Plasmodium falciparum [6]
  IC50: 4.21 µM
[16]
  remaining at 2 h, 10 µM: 81.8%
Mus musculus [17]
  inhibition in vivo at 50 mg/kg: 58%
THP-1 [2]
  Activity: Active
Mus musculus [18]
  inhibition in vivo at 25 mg/kg: 49%
[19]
  Vd: 541.85 L/kg
[20]
  Cmax: 369 ng/mL
[21]
  half-life: 75 min
THP-1 [22]
  Activity: Active
HEK-293T
  fold change (FC): 7.4
Mus musculus [23]
  inhibition in vivo at 25 mg/kg: 43%
Mus musculus [24]
  inhibition in vivo at 100 mg/kg: 62%
[9]
  MST: 12.2 days
Mus musculus [25]
  inhibition in vivo at 50 mg/kg: 60%
[26]
  AUC at 48 h: 178 ng·h/mL
THP-1 [27]
  Activity: Active
[28]
  remaining at 2 h: 89.9%
Plasmodium yoelii [10]
  Activity: 69.4%
THP-1 [3]
  Activity: 92.51%
[29]
  remaining at 2 h: 89.8%

## Cc1c(C(=O)Nc2ccccc2)c(-c2ccccc2)c(-c2ccc(C(C)C)cc2)n1C
Plasmodium falciparum [1]
  IC50: 2.94 µM
Plasmodium falciparum [6]
  IC50: 4.34 µM

## COc1ccc(-c2c(-c3ccccc3)c(C(=O)Nc3ccccc3)c(C)n2CCC2=CC(=O)OC2O)cc1 (centres undefined)
Plasmodium falciparum [1]
  IC50: > 5 µM

## Cc1c(C(=O)Nc2ccccc2)c(-c2ccc(F)cc2)c(-c2ccc(F)cc2)n1CC1=CC(=O)OC1O (centres undefined)
Plasmodium falciparum [1]
  IC50: 4.62 µM
THP-1 [2]
  Activity: Active
HEK-293T
  fold change (FC): 9
THP-1 [3]
  Activity: 32.69%

Reference: ChEMBL document CHEMBL5360578, “Design, synthesis and evaluation of novel pyrrole-hydroxybutenolide hybrids as promising antiplasmodial and anti-inflammatory agents” (Eur J Med Chem, 2023)
